Source: paper PMC12621189, “Optimization of Selective and CNS Penetrant Alkyne-Based TREK Inhibitors: The Discovery and Characterization of ONO-9517601 (VU6022856) and ONO-7927846 (VU6024391)” (Journal of Medicinal Chemistry, 2025)

Legend:
human TREK-2 (hTREK-2) = target: T1, human TREK-2 (hTREK-2) (Homo sapiens, UniProt P57789); assay: TREK-2 thallium flux assay (HEK293 cells stably expressing hTREK-2); type: cell-based; details: human TREK-2, thallium flux; read-out: h TREK-2 Tl+ IC50
T1 construct: expressed in transfected cells
T1 sequence (P57789 1-538): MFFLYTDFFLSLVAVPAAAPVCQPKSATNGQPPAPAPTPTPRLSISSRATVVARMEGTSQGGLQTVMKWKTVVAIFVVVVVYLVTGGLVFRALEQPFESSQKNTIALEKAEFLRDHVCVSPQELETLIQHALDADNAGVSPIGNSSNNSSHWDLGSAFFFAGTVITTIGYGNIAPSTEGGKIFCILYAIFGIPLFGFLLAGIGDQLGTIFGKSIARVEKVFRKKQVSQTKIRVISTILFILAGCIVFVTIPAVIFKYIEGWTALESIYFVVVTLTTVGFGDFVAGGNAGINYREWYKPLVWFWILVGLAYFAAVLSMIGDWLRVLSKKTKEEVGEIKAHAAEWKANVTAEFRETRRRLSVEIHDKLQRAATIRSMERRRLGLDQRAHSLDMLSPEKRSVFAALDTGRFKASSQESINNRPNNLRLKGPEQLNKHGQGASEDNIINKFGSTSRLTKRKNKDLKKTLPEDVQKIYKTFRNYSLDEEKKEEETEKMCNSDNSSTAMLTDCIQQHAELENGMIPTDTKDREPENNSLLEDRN
Protocol: (§1) 0.3% DMSO - ΔRatio of 10 μM control compound)}x100
(§2) % inhibition vs compound concentration were plotted in XLfit and calculated IC50.
TREK-2 Thallium flux assay
HEK293 cells stably expressing human TREK-2 (hTREK-2) are plated in 384-well plates, cultured overnight, loaded with Thallos dye the following day. Test compounds or control compound (tert-butyl (3-((4-(benzyloxy)-2-methylphenyl)carbamoyl)-4-chlorophenyl)carbamate) or 0.3% DMSO (vehicle control) which are prepared on separate plates are added to the cell plates and incubated for 10 min, and then the cells were treated with thallium stimulus buffer to initiate […]
To measure the efficacy and potency of test compounds, the change in fluorescence intensity (ΔRatio) and % inhibition are calculated using the following equations: […]

human TREK-1 (hTREK-1) = target: T2, human TREK-1 (hTREK-1) (Homo sapiens, UniProt O95069); assay: TREK-1 thallium flux assay (CHO-K1 cells stably expressing hTREK-1); type: cell-based; details: human TREK-1, thallium flux; read-out: h TREK-1 Tl+ IC50
T2 construct: expressed in transfected cells
T2 sequence (O95069 1-426): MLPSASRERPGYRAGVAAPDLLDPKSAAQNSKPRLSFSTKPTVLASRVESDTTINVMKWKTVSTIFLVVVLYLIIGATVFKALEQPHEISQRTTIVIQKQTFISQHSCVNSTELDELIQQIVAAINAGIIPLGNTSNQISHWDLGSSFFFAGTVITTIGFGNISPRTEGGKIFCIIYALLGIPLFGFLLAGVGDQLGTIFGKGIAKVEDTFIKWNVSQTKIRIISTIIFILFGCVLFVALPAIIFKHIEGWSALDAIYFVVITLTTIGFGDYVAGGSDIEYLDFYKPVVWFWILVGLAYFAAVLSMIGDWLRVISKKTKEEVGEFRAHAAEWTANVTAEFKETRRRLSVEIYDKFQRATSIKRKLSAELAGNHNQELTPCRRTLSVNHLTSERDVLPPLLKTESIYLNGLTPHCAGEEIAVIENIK
Protocol: Procedures for Biological Experiments
TREK-1 Thallium flux assay
CHO-K1 cells stably expressing hTREK-1 were cultured in T225 flask. The cells were loaded with FluxOR dye and plated in 384 well plate at the experiment day. Test compounds or control compound (tert-butyl (3-((4-(benzyloxy)-2-methylphenyl)carbamoyl)-4-chlorophenyl)carbamate) or 0.3% DMSO (vehicle control) were added directly to the cell plates and incubated for 10 min, and then treated with thallium stimulus buffer to initiate thallium flux.
To measure the efficacy and potency of test compounds, the change in fluorescence intensity (ΔRatio) and % inhibition were calculated using the following equations:
ΔRatio = (fluorescence intensity at 25 seconds after thallium addition)/(average of fluorescent intensity before thallium addition)
as §1, §2
CHO-K1 cells stably expressing human TREK-1 (hTREK-1) were cultured in T225 flask.
The cells were loaded with FluxOR dye and plated in 384 well plate at the experiment day. Test compounds or control compound (tert-butyl (3-((4-(benzyloxy)-2-methylphenyl)carbamoyl)-4-chlorophenyl)carbamate) or 0.3% DMSO (vehicle control) which were prepared on separate plates were added to the cell plates and incubated for 10 min, and then the cells with test compounds or […]
chlorophenyl)carbamate) or 0.3% DMSO (vehicle control) were treated with thallium stimulus buffer to initiate thallium flux. To measure the efficacy and potency of test compounds, the change in fluorescence intensity (ΔRatio) and % inhibition were calculated using the following equations: […]

ChromatoLogD = type: physicochemical
[1] = Plasma protein binding, rat; type: in vitro ADME; details: rat, plasma, pH 7.4, rat plasma, bound; read-out: PPB rat (converted)
Protocol: (§3) Plasma protein binding and Brain homogenate binding: Determination of fraction unbound (f u) in plasma was conducted in vitro via equilibrium dialysis using HTDialysis (HTD) membrane plates. The top half of the plate was filled with 100 uL of Dubelco’s Phosphate Buffered Saline, pH 7.4 (DPBS). Compounds were diluted into plasma from each species (5 µM final concentration), which was aliquoted in triplicate to the ‘bottom half’ of the prepared HTD plate wells. The HTD plate was sealed and incubated for 6 hours at 37 °C. Following incubation, each well (both top and bottom halves) were transferred (20 µL) to the corresponding wells of a 96-shallow-well (V-bottom) plate. The daughter plates were then matrix-matched (DPBS side wells received equal volume of plasma, and plasma side wells received equal volume of DPBS), and extraction solution (120 µL; acetonitrile containing 50 nM carbamazepine as IS) was added to all wells of both daughter plates to precipitate protein and extract test article. The plates were then sealed and centrifuged (3500 rcf) for 10 minutes at ambient temperature. Supernatant (60 µL) from each well of the daughter plates was then transferred to the corresponding wells of new daughter plates (96-shallow-well, V bottom) containing water (Milli-Q, 60 µL/well), and the plates were sealed in preparation for LC-MS/MS analysis (see LC-MS/MS analysis method below).
(§4) The unbound fraction (f u) was calculated following the equation below, and mean values for each species were calculated from 3 replicates. […]
(§5) Fraction unbound for both plasma and brain samples was determined using Equation 4.
(§6) Equation 4 Determination of fraction unbound in plasma. […]

[2] = Liver microsome intrinsic clearance, rat; type: in vitro ADME; details: pH 7.4; rat liver microsomes, predicted intrinsic clearance; read-out: LMS CLINT rat
Protocol: (§7) were incubated in 100 mM potassium phosphate pH 7.4 buffer with 3 mM MgCl2 at 37 °C with constant shaking. After a 5 min preincubation, the reaction was initiated by the addition of NADPH (1 mM). At selected time intervals (0, 3, 7, 15, 25, and 45 min), aliquots were taken and subsequently placed into a 96-well plate containing cold acetonitrile with internal standard (50 ng/mL carbamazepine). Plates were then centrifuged at 3000 rcf (4 °C) for 10 min, and the supernatant was transferred to a separate 96-well plate and diluted 1:1 with water for LC/MS/MS analysis. The in vitro half-life ( 1/2, min, Eq. 1), intrinsic clearance (CLint, mL/min/kg, Eq. 2), and subsequent predicted hepatic clearance (CLhep, mL/min/kg, Eq. 3) was determined employing the […]
(§8) where k represents the slope from linear regression analysis of the natural log percent remaining of a test compound as a function of incubation time […]
(§9) (2) CLint = in vitroT x mg microsomes x gram liver x kg body wt ascale-up factors: of 20 (human) or 45 (rat) […]
(§10) where Qh (hepatic blood flow, mL/min/kg) is 21 (human) or 70 (rat).
(§11) LC/MS/MS Bioanalysis of Samples from Plasma Protein Binding and Intrinsic Clearance […]
(§12) Samples were analyzed on a Thermo Electron TSQ Quantum Ultra triple quad mass spectrometer (San Jose, CA) via electrospray ionization (ESI) with two Themo Electron Accella pumps (San Jose, CA), and a Leap Technologies CTC PAL autosampler (Carrboro, NC). Analytes were […]

[3] = Plasma protein binding, mouse; type: in vitro ADME; details: mouse, plasma, pH 7.4, mouse plasma, bound; read-out: PPB mouse (converted)
Protocol: as §3, §4, §5, §6

[4] = Liver microsome intrinsic clearance, human; type: in vitro ADME; details: pH 7.4; human liver microsomes, predicted intrinsic clearance; read-out: LMS CLINT human
Protocol: as §7, §8, §9, §10, §11, §12

[5] = Liver microsome intrinsic clearance, mouse; type: in vitro ADME; details: pH 7.4; mouse liver microsomes, predicted intrinsic clearance; read-out: LMS CLINT mouse

| Compound | IC50 (human TREK-2 (hTREK-2)) | IC50 (human TREK-1 (hTREK-1)) | also measured |
| --- | --- | --- | --- |
| Cc1cc(C#Cc2ccccc2)cnc1NC(=O)c1c(Cl)cnn1CC1COCCO1 (centres unmarked) [Compound 8, 1-((1,4-Dioxan-2-yl)methyl)-4-chloro-N-(3-methyl-5-(phenylethynyl)pyridin-2-yl)-1H-pyrazole-5-carboxamide] |  | 670 nM |  |
| Cc1cc(C#Cc2ccccc2)cnc1NC(=O)c1c(Cl)cnn1CC1CCOCC1 [Compound 14b, 4-Chloro-N-(3-methyl-5-(phenylethynyl)pyridin-2-yl)-1-((tetrahydro-2H-pyran-4-yl)methyl)-1H-pyrazole-5-carboxamide] |  | 200 nM |  |
| Cc1cc(C#Cc2ccccc2)cnc1NC(=O)c1cc(NC(=O)OC(C)(C)C)ccc1Cl [Compound 13e] |  | 140 nM | chromatographic logD (ChromatoLogD): 5.15 |
| Cc1cc(C#Cc2ccccc2)cnc1NC(=O)c1c(Cl)cnn1-c1ccc2c(cnn2C)c1 [Compound 15c, 4-Chloro-1-(1-methyl-1H-indazol-5-yl)-N-(3-methyl-5-(phenylethynyl)pyridin-2-yl)-1H-pyrazole-5-carboxamide] |  | 84 nM | fraction unbound at 6 h, 5 µM [1]: 0.002 |
| Cc1cc(C#Cc2ccccc2)cnc1NC(=O)c1c(Cl)cnn1CCCC#N [Compound 15d, 4-Chloro-1-(3-cyanopropyl)-N-(3-methyl-5-(phenylethynyl)pyridin-2-yl)-1H-pyrazole-5-carboxamide] |  |  | CLint scaled at 1 µM [2]: 30 mL/min/kg; fraction unbound at 6 h, 5 µM [3]: 0.001; CLint scaled at 1 µM [4]: 9 mL/min/kg |
| Cc1cc(C#Cc2ccccc2)cnc1NC(=O)c1cc(-c2noc(C3CCOC3)n2)ccc1Cl (centres unmarked) [Compound 13b, 2-Chloro-N-(3-methyl-5-(phenylethynyl)pyridin-2-yl)-5-(5-(tetrahydrofuran-3-yl)-1,2,4-oxadiazol-3-yl)benzamide] |  | 48 nM | chromatographic logD (ChromatoLogD): 5.01; CLint scaled at 1 µM [5]: 68 mL/min/kg; CLint scaled at 1 µM [4]: 71 mL/min/kg |
| CC(=O)N1C[C@H]2C[C@H](n3ncc(Cl)c3C(=O)Nc3ncc(C#Cc4ccccc4)cc3C)C[C@H]2C1 [Compound 15g, 1-((3aR,5s,6aS)-2-Acetyloctahydrocyclopenta[c]pyrrol-5-yl)-4-chloro-N-(3-methyl-5-(phenylethynyl)pyridin-2-yl)-1H-pyrazole-5-carboxamide] |  |  | fraction unbound at 6 h, 5 µM [1]: 0.009 |

Continued, in another order:

| IC50 (human TREK-2 (hTREK-2)) | IC50 (human TREK-1 (hTREK-1)) | Compound | also measured |
| --- | --- | --- | --- |
| 330 nM | 70 nM | CC(=O)N1CC[C@H](n2ncc(Cl)c2C(=O)Nc2ncc(C#Cc3ccccc3)cc2F)[C@H](F)C1 [Compound 16e, 1-((3R,4S)-1-Acetyl-3-fluoropiperidin-4-yl)-4-chloro-N-(3-fluoro-5-(phenylethynyl)pyridin-2-yl)-1H-pyrazole-5-carboxamide] |  |
| 470 nM |  | CC(=O)N1CC[C@H](n2ncc(Cl)c2C(=O)Nc2ncc(C#Cc3ccccc3)cc2F)[C@@H](F)C1 [Compound 16f, 1-((3S,4S)-1-Acetyl-3-fluoropiperidin-4-yl)-4-chloro-N-(3-fluoro-5-(phenylethynyl)pyridin-2-yl)-1H-pyrazole-5-carboxamide] |  |
| 530 nM |  | CC(=O)N1CC[C@H](n2ncc(Cl)c2C(=O)Nc2ncc(C#Cc3ccccc3)cc2C)[C@H](F)C1 [Compound 16d, 1-((3R,4S)-1-Acetyl-3-fluoropiperidin-4-yl)-4-chloro-N-(3-methyl-5-(phenylethynyl)pyridin-2-yl)-1H-pyrazole-5-carboxamide] |  |
| 280 nM | 98 nM | CC(=O)N1CCC(n2ncc(Cl)c2C(=O)Nc2ncc(C#Cc3ccccc3)cc2C)C(F)C1 (centres unmarked) [Compound 16a, 1-(1-Acetyl-3-fluoropiperidin-4-yl)-4-chloro-N-(3-methyl-5-(phenylethynyl)pyridin-2-yl)-1H-pyrazole-5-carboxamide] |  |
| 530 nM | 160 nM | CC(=O)N1CC[C@@H](n2ncc(Cl)c2C(=O)Nc2ncc(C#Cc3ccccc3)cc2C)[C@@H](F)C1 [Compound 16c, 1-((3S,4R)-1-Acetyl-3-fluoropiperidin-4-yl)-4-chloro-N-(3-methyl-5-(phenylethynyl)pyridin-2-yl)-1H-pyrazole-5-carboxamide] |  |
| 290 nM | 96 nM | CC(=O)N1CC[C@@H](n2ncc(Cl)c2C(=O)Nc2ncc(C#Cc3ccccc3)cc2C)[C@H](F)C1 [Compound 16b, 1-((3R,4R)-1-Acetyl-3-fluoropiperidin-4-yl)-4-chloro-N-(3-methyl-5-(phenylethynyl)pyridin-2-yl)-1H-pyrazole-5-carboxamide] | CLint scaled at 1 µM [2]: 94 mL/min/kg; CLint scaled at 1 µM [4]: 13 mL/min/kg |
